Experimental data as given in patent US7879898B1, “Hepatocyte growth factor pathway activators in chronic obstructive pulmonary disease” (Angion Biomedica Corp., priority 2006, dated 2011).

Assays:
[1] = system: bovine pulmonary endothelial cells (bPAEC); assay: CytoSelect 24-well cell migration assay of bPAEC; assay type: cell-based; settings: 24 h; multiple concentrations; FIG. 2
Procedure: Another important pulmotrophic activity of HGF is to stimulate migration of pulmonary endothelial cells. Again, bPAEC cells were used to test if test compound, like HGF, can stimulate migration of the cells. The CytoSelect 24-well cell migration assay (Cell Biolabs, Inc.) was used to measure the migration of bPAEC cells according to the kit manual.
CytoSelect 24-well cell migration assay kit (Cell Biolabs, Inc.) was used. Briefly, ˜300,000 cells/chamber were seeded in serum-free medium and put into a larger well containing medium with no-serum (C), serum, HGF, compound at multiple concentrations (see above), respectively, and incubated for 24 h. The medium was then aspirated from the chamber and then carefully and completely, the cells on the inner surface of the membrane were removed with cotton and the membrane washed twice. The migrated cells were stained and quantified by measuring OD at 560 nm. The mean values from bouble wells for each compound are shown.

[2] = system: bovine pulmonary endothelial cells (bPAEC); assay: 3H-thymidine incorporation cell proliferation assay in bPAEC combined with c-Met siRNA; assay type: cell-based; settings: serial dilutions of 5-((E)-2-thiophen-2-yl-vinyl)-1H-pyrazole or HGF; with c-Met siRNA knockdown; FIG. 1B-C
Procedure: Compounds promote proliferation of pulmonary endothelial cells specifically through c-Met. Proliferation of pulmonary endothelial cells is one of the important pulmotrophic activities of HGF. […] First, a c-Met siRNA was used with a lipo-transfecting reagent to knock down the c-Met mRNA level in bPAEC cells, and real time RT-PCR conducted to measure the effect. The c-Met siRNA can knock down ˜90% of c-Met mRNA at a c-Met siRNA concentration as low as 50 nM. Next, the siRNA knockdown condition established from the first step was used to decrease >=90% of c-Met mRNA in bPAEC by using 100 nM of the c-Met siRNA pool, and subsequently ^3H-thymidine incorporation assay was performed in the bPAEC cells.
Shown in FIG. 1B-C, ˜5,000/well bPAEC were plated in 96 well plates. The steps as described above were continued until 24 h after adding the mixture of siRNAs and lipofectamine. Then the medium was changed with the fresh mixture of siRNAs and lipofectamine containing serial dilutions of the compound 5-((E)-2-thiophen-2-yl-vinyl)-1H-pyrazole or HGF, incubated another 24 h, 100 ul of ^3H-thymidine(1uCi/ml) was added and incubation continued overnight. Then, 100 ul/well Trypsin/EDTA was added, and ^3H-thymidine incorporation analysis was conducted using an auto-harvester and Topcount NXT v2.12 instrument.

HGF: hepatocyte growth factor (HGF; also known as scatter factor), acts through its receptor c-Met
migration of bPAEC cells (OD at 560 nM) [1]: stimulates bPAEC cells migration
proliferation of bPAEC cells (3H-thymidine incorporation) [2]: promote proliferation of bPAEC cells specifically through HGF receptor c-Met
